# Values joined by “and” are separate entries in the source; they are usually repeats but may differ in a detail not shown here. Identical values can stand only once.
# Target: T1, FPR2 (Homo sapiens, UniProt P25090)
# T1 construct: expressed in transfected cells
# T1 sequence (P25090 1-351): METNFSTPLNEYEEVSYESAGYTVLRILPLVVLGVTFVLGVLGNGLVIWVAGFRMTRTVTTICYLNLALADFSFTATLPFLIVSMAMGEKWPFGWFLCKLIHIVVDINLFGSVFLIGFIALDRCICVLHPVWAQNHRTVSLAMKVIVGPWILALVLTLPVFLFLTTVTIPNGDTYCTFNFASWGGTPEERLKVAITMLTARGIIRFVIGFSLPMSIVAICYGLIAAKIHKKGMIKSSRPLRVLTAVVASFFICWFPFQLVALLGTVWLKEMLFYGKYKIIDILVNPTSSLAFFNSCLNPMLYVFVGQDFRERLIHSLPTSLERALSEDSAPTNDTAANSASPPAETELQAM
# Experiment: Compound-induced calcium activity on FLIPR Tetra in CHO-Gα16 cells stably expressing FPRL1
# Type: cell-based
# Conditions: for FPR2 Ga16-CHO (Rel. eff.): relative efficacy; for EC50: tested 0.61 to 10,000 nM, read-out: FPR2 Ga16-CHO EC50
# Method: CHO-Gα16 cells stably expressing FPRL1 were cultured in (F12, 10% FBS, 1% PSA, 400 μg/ml geneticin and 50 μg/ml hygromycin) and HEK-Gqi5 cells stable expressing FPR1 were cultured in (DMEM high glucose, 10% FBS, 1% PSA, 400 μg/ml geneticin and 50 μg/ml hygromycin). In general, the day before the experiment, 18,000 cells/well were plated in a 384-well clear bottom poly-d-lysine coated plate. The following day the screening compound-induced calcium activity was assayed on the FLIPR^Tetra. The drug plates were prepared in 384-well microplates using the EP3 and the MultiPROBE robotic liquid handling systems. Compounds were tested at concentrations ranging from 0.61 to 10,000 nM. Results are expressed as EC50 (nM) and efficacy values.
SMILES,FPR2 Ga16-CHO (Rel. eff.),EC50,FPR2 Ga16-CHO (Rel. eff.) (listed as {Ethyl[(2S)-4-Methyl-2-({[4-(trifluoromethyl)phenyl]carbamoyl}amino)pentanoyl]am),FPR2 Ga16-CHO (Rel. eff.) (listed as {Ethyl[(2S)-4-methyl-2-({[4-(trifluoromethyl)phenyl]carbamoyl}amino)pentanoyl]am)
"CCN(CC(=O)OC(C)(C)C)C(=O)[C@H](CC(C)C)NC(=O)Nc1ccc(Br)cc1 [Compound 6, tert-Butyl {[(2S)-2-{[(4-bromophenyl)carbamoyl]amino}-4-methylpentanoyl](ethyl)amino}acetate]",(0.50),1970 nM,–,–
"CCCN(CC(=O)OC(C)(C)C)C(=O)[C@H](CC(C)C)NC(=O)Nc1ccc(Br)cc1 [Compound 4, tert-Butyl {[(2S)-2-{[(4-Bromophenyl)carbamoyl]amino}-4-methylpentanoyl](propyl)amino}acetate]",(1.04),0.29 nM,–,–
"CCCN(CC(=O)O)C(=O)[C@H](CC(C)C)NC(=O)Nc1ccc(C(F)(F)F)cc1 [Compound 13, {[(2S)-4-Methyl-2-({[4-(trifluoromethyl)phenyl]carbamoyl}amino)pentanoyl](propyl)amino}acetic acid]",(1.04),< 1 nM,–,–
"CC(C)C[C@H](NC(=O)Nc1ccc(C(F)(F)F)cc1)C(=O)N(CC(=O)O)C(C)C [Compound 11, {[(2S)-4-Methyl-2-({[4-(trifluoromethyl)phenyl]carbamoyl}amino)pentanoyl](propan-2-yl)amino}acetic acid]",(0.75),1730 nM,–,–
"CCN(CC(=O)O)C(=O)[C@H](CC(C)C)NC(=O)Nc1ccc(C(F)(F)F)cc1 [Compound 15, {Ethyl[(2S)-4-Methyl-2-({[4-(trifluoromethyl)phenyl]carbamoyl}amino)pentanoyl]amino}acetic acid]",–,0.32 nM and 1.85 nM,(0.85),(1.02)
"CC(C)C[C@H](NC(=O)Nc1ccc(Br)cc1)C(=O)N(C)CC(=O)O [Compound 8, {[(2S)-2-{[(4-bromophenyl)carbamoyl]amino}-4-methylpentanoyl](methyl)amino}acetic acid]",(1.00),< 1 nM,–,–

# Continued by falling EC50, values first:
FPR2 Ga16-CHO (Rel. eff.),EC50,FPR2 Ga16-CHO (Rel. eff.) (listed as {Ethyl[(2S)-4-Methyl-2-({[4-(trifluoromethyl)phenyl]carbamoyl}amino)pentanoyl]am),FPR2 Ga16-CHO (Rel. eff.) (listed as {Ethyl[(2S)-4-methyl-2-({[4-(trifluoromethyl)phenyl]carbamoyl}amino)pentanoyl]am),SMILES
(1.02),995 nM,–,–,"CC(C)C[C@H](NC(=O)Nc1ccc(C(F)(F)F)cc1)C(=O)N(C)CC(=O)OC(C)(C)C [Compound 2, tert-Butyl {Methyl[(2S)-4-methyl-2-({[4-(trifluoromethyl)phenyl]carbamoyl}amino)pentanoyl]amino}acetate]"
(0.95),434 nM,–,–,"CCCN(CC(=O)OC(C)(C)C)C(=O)[C@H](CC(C)C)NC(=O)Nc1ccc(C(F)(F)F)cc1 [Compound 5, tert-Butyl {[(2S)-4-Methyl-2-({[4-(trifluoromethyl)phenyl]carbamoyl}amino)pentanoyl](propyl)amino}acetate]"
(1.06),163 nM,–,–,"CC(C)C[C@H](NC(=O)Nc1ccc(Br)cc1)C(=O)N(CC(=O)OC(C)(C)C)C(C)C [Compound 3, tert-Butyl {[(2S)-2-{[(4-Bromophenyl)carbamoyl]amino}-4-methylpentanoyl](propan-2-yl)amino}acetate]"
(0.91),17 nM,–,–,"CCN(CC(=O)OC(C)(C)C)C(=O)[C@H](CC(C)C)NC(=O)Nc1ccc(C(F)(F)F)cc1 [Compound 7, tert-Butyl {Ethyl[(2S)-4-methyl-2-({[4-(trifluoromethyl)phenyl]carbamoyl}amino)pentanoyl]amino}acetate]"
(0.85),11.8 nM,–,–,"CC(C)C[C@H](NC(=O)Nc1ccc(Br)cc1)C(=O)N(C)CC(=O)OC(C)(C)C [Compound 1, tert-Butyl{[(2S)-2-{[(4-Bromophenyl)carbamoyl]amino}-4-methylpentanoyl](methyl)amino}acetate]"
(1.02),0.41 nM,–,–,"CC(C)C[C@H](NC(=O)Nc1ccc(C(F)(F)F)cc1)C(=O)N(C)CC(=O)O [Compound 9, {Methyl[(2S)-4-Methyl-2-({[4-(trifluoromethyl)phenyl]carbamoyl}amino)pentanoyl]amino}acetic acid]"
(0.97),0.24 nM,–,–,"CC(C)C[C@H](NC(=O)Nc1ccc(Br)cc1)C(=O)N(CC(=O)O)C(C)C [Compound 10, {[(2S)-2-{[(4-Bromophenyl)carbamoyl]amino}-4-methylpentanoyl](propan-2-yl)amino}acetic acid]"
(0.99),0.13 nM,–,–,"CCN(CC(=O)O)C(=O)[C@H](CC(C)C)NC(=O)Nc1ccc(Br)cc1 [Compound 14, {[(2S)-2-{[(4-Bromophenyl)carbamoyl]amino}-4-methylpentanoyl](ethyl)amino}acetic acid]"

# Source: patent US9428549B2, “Derivatives of N-urea substituted amino acids as formyl peptide receptor modulators” (Allergan, Inc., priority 2013, dated 2016)
